#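 Values below derive from 48-hour exposures of cells grown in 96-well plates, with endpoints linearly interpolated between the two concentrations bracketing the appropriate inhibition level. At the GI50, growth is halved. Definition used: TGI = concentration required for complete inhibition of growth.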
# Tests used:
# Test in all cases: NCI tumour cell line growth inhibition, 48 h
# OVCAR-4 ovarian = test system: OVCAR-4 ovarian
# SK-OV-3 ovarian = test system: SK-OV-3 ovarian
# EKVX NSCLC = test system: EKVX NSCLC
# PC-3 prostate = test system: PC-3 prostate
# K-562 leukemia = test system: K-562 leukemia
# SK-MEL-28 melanoma = test system: SK-MEL-28 melanoma
# M14 melanoma = test system: M14 melanoma
# COLO 205 colon = test system: COLO 205 colon
# DU-145 prostate = test system: DU-145 prostate
# BT-549 breast = test system: BT-549 breast
# LOX IMVI melanoma = test system: LOX IMVI melanoma
# KM12 colon = test system: KM12 colon
# NCI-H226 lung = test system: NCI-H226 lung
# MALME-3M melanoma = test system: MALME-3M melanoma
# MDA-MB-231 breast = test system: MDA-MB-231 breast
# OVCAR-8 ovarian = test system: OVCAR-8 ovarian
# SN12C renal = test system: SN12C renal
# ACHN renal = test system: ACHN renal
# SNB-19 CNS = test system: SNB-19 CNS
# T-47D breast = test system: T-47D breast
# RXF 393 renal = test system: RXF 393 renal
# RPMI-8226 leukemia = test system: RPMI-8226 leukemia
# HOP-62 NSCLC = test system: HOP-62 NSCLC
# SK-MEL-2 melanoma = test system: SK-MEL-2 melanoma
# A549 NSCLC = test system: A549 NSCLC
# CCRF-CEM leukemia = test system: CCRF-CEM leukemia
# 786-0 renal = test system: 786-0 renal
# HCC-2998 colon = test system: HCC-2998 colon
# HL-60(TB) leukemia = test system: HL-60(TB) leukemia
# HCT-15 colon = test system: HCT-15 colon
# HS 578T breast = test system: HS 578T breast
# SF-539 CNS = test system: SF-539 CNS
# SK-MEL-5 melanoma = test system: SK-MEL-5 melanoma
# UACC-257 melanoma = test system: UACC-257 melanoma
# MDA-MB-435 = test system: MDA-MB-435
# NCI-H522 lung = test system: NCI-H522 lung
# NCI-H460 lung = test system: NCI-H460 lung
# TK-10 renal = test system: TK-10 renal
# OVCAR-3 ovarian = test system: OVCAR-3 ovarian
# SNB-75 CNS = test system: SNB-75 CNS
# IGROV1 ovarian = test system: IGROV1 ovarian
# UACC-62 melanoma = test system: UACC-62 melanoma
# A498 renal = test system: A498 renal
# CAKI-1 renal = test system: CAKI-1 renal
# HCT-116 colon = test system: HCT-116 colon
# OVCAR-5 ovarian = test system: OVCAR-5 ovarian
# SF-268 CNS = test system: SF-268 CNS
# NCI-H23 lung = test system: NCI-H23 lung
# SF-295 CNS = test system: SF-295 CNS
# MDA-MB-468 breast = test system: MDA-MB-468 breast
# HOP-92 NSCLC = test system: HOP-92 NSCLC
# MOLT-4 leukemia = test system: MOLT-4 leukemia
# U251 CNS = test system: U251 CNS
# SR leukemia = test system: SR leukemia
# MCF7 breast = test system: MCF7 breast
# HT29 colon = test system: HT29 colon
# UO-31 renal = test system: UO-31 renal
# SW-620 colon = test system: SW-620 colon
compound,measurement,setting,value
O=C1Nc2ccc(Cl)cc2/C1=C/c1cccc(OCc2ccccc2)c1,GI50,OVCAR-4 ovarian,11.8 µM
same,TGI,OVCAR-4 ovarian,63.2 µM
same,GI50,SK-OV-3 ovarian,59 µM
same,TGI,SK-OV-3 ovarian,> 100 µM
same,GI50,EKVX NSCLC,20.5 µM
same,TGI,EKVX NSCLC,> 100 µM
same,GI50,PC-3 prostate,14.9 µM
same,TGI,PC-3 prostate,82 µM
same,GI50,K-562 leukemia,11 µM
same,TGI,K-562 leukemia,37.8 µM
same,GI50,SK-MEL-28 melanoma,16.5 µM
same,TGI,SK-MEL-28 melanoma,44.3 µM
same,GI50,M14 melanoma,19.5 µM
same,TGI,M14 melanoma,> 100 µM
same,GI50,COLO 205 colon,37.4 µM
same,TGI,COLO 205 colon,> 100 µM
same,GI50,DU-145 prostate,17 µM
same,TGI,DU-145 prostate,45.3 µM
same,GI50,BT-549 breast,14.3 µM
same,TGI,BT-549 breast,66.1 µM
same,GI50,LOX IMVI melanoma,10.2 µM
same,TGI,LOX IMVI melanoma,40.4 µM
same,GI50,KM12 colon,20.1 µM
same,TGI,KM12 colon,> 100 µM
same,GI50,NCI-H226 lung,14.1 µM
same,TGI,NCI-H226 lung,84.6 µM
same,GI50,MALME-3M melanoma,21.1 µM
same,TGI,MALME-3M melanoma,64.7 µM
same,GI50,MDA-MB-231 breast,15.3 µM
same,TGI,MDA-MB-231 breast,37.9 µM
same,GI50,OVCAR-8 ovarian,20.2 µM
same,TGI,OVCAR-8 ovarian,61.8 µM
same,GI50,SN12C renal,20.5 µM
same,TGI,SN12C renal,88.8 µM
same,GI50,ACHN renal,15 µM
same,TGI,ACHN renal,37.3 µM
same,GI50,SNB-19 CNS,17.9 µM
same,TGI,SNB-19 CNS,58.8 µM
same,GI50,T-47D breast,16.1 µM
same,TGI,T-47D breast,> 100 µM
same,GI50,RXF 393 renal,18.4 µM
same,TGI,RXF 393 renal,95.9 µM
same,GI50,RPMI-8226 leukemia,7.46 µM
same,TGI,RPMI-8226 leukemia,36.7 µM
same,GI50,HOP-62 NSCLC,25.6 µM
same,TGI,HOP-62 NSCLC,79.8 µM
same,GI50,SK-MEL-2 melanoma,31.2 µM
same,TGI,SK-MEL-2 melanoma,> 100 µM
same,GI50,A549 NSCLC,18.3 µM
same,TGI,A549 NSCLC,> 100 µM
same,GI50,CCRF-CEM leukemia,11.2 µM
same,TGI,CCRF-CEM leukemia,32.1 µM
same,GI50,786-0 renal,14.1 µM
same,TGI,786-0 renal,32.6 µM
same,GI50,HCC-2998 colon,41.2 µM
same,TGI,HCC-2998 colon,> 100 µM
same,GI50,HL-60(TB) leukemia,13.3 µM
same,TGI,HL-60(TB) leukemia,57.8 µM
same,GI50,HCT-15 colon,9.4 µM
same,TGI,HCT-15 colon,94.6 µM
same,GI50,HS 578T breast,16 µM
same,TGI,HS 578T breast,72.9 µM
same,GI50,SF-539 CNS,18.5 µM
same,TGI,SF-539 CNS,48.6 µM
same,GI50,SK-MEL-5 melanoma,28.1 µM
same,TGI,SK-MEL-5 melanoma,> 100 µM
same,GI50,UACC-257 melanoma,53.8 µM
same,TGI,UACC-257 melanoma,> 100 µM
same,GI50,MDA-MB-435,24 µM
same,TGI,MDA-MB-435,98.8 µM
same,GI50,NCI-H522 lung,24 µM
same,TGI,NCI-H522 lung,> 100 µM
same,GI50,NCI-H460 lung,14 µM
same,TGI,NCI-H460 lung,37.9 µM
same,GI50,TK-10 renal,56.1 µM
same,TGI,TK-10 renal,> 100 µM
same,GI50,OVCAR-3 ovarian,12.4 µM
same,TGI,OVCAR-3 ovarian,31.7 µM
same,GI50,SNB-75 CNS,16.7 µM
same,TGI,SNB-75 CNS,56 µM
same,GI50,IGROV1 ovarian,12.3 µM
same,TGI,IGROV1 ovarian,61.2 µM
same,GI50,UACC-62 melanoma,8.87 µM
same,TGI,UACC-62 melanoma,35.4 µM
same,GI50,A498 renal,38 µM
same,TGI,A498 renal,> 100 µM
same,GI50,CAKI-1 renal,10.8 µM
same,TGI,CAKI-1 renal,32 µM
same,GI50,HCT-116 colon,10.7 µM
same,TGI,HCT-116 colon,> 100 µM
same,GI50,OVCAR-5 ovarian,27.5 µM
same,TGI,OVCAR-5 ovarian,> 100 µM
same,GI50,SF-268 CNS,14.6 µM
same,TGI,SF-268 CNS,49.4 µM
same,GI50,NCI-H23 lung,22 µM
same,TGI,NCI-H23 lung,> 100 µM
same,GI50,SF-295 CNS,37 µM
same,TGI,SF-295 CNS,> 100 µM
same,GI50,MDA-MB-468 breast,6.52 µM
same,TGI,MDA-MB-468 breast,67.5 µM
same,GI50,HOP-92 NSCLC,2.16 µM
same,TGI,HOP-92 NSCLC,13.4 µM
same,GI50,MOLT-4 leukemia,4.96 µM
same,TGI,MOLT-4 leukemia,23.6 µM
same,GI50,U251 CNS,14.8 µM
same,TGI,U251 CNS,55.4 µM
same,GI50,SR leukemia,5.66 µM
same,TGI,SR leukemia,21.8 µM
same,GI50,MCF7 breast,3.9 µM
same,TGI,MCF7 breast,75.1 µM
same,GI50,HT29 colon,37.8 µM
same,TGI,HT29 colon,> 100 µM
same,GI50,UO-31 renal,7.91 µM
same,TGI,UO-31 renal,> 100 µM
same,GI50,SW-620 colon,19.9 µM
same,TGI,SW-620 colon,75.9 µM

# From PubChem BioAssay (NCI)
